Values quoted from earlier work, collected in patent publication US10926237B2, “Soluble corrosion resistant sol-gel” (THE BOEING COMPANY, priority 2018, dated 2021).

Sc1nnc(S)s1 [2,5-Dimercapto-1,3,4-thiadiazole, 2,5-dimercapto-1,3,4-thiadiazole]
water solubility (in words): water soluble
